Measurements: publication PMC9571953, “Discovery of New VEGFR-2 Inhibitors: Design, Synthesis, Anti-Proliferative Evaluation, Docking, and MD Simulation Studies” (Molecules, 2022)
Each block holds one molecule with its values, some of them ahead of it.

How the values were obtained:
[1] = tested on: HCT-116 cells; assay: Annexin-V/propidium iodide apoptosis assay; format: cell-based; settings: HCT-116, 9.3 µM of compound 6, 48 h
Procedure: Both extrinsic and intrinsic apoptosis induced by compound 6 in HCT-116 cells was assayed through Annexin-V/propidium iodide staining assay. Marked induction of both early and late apoptosis was observed upon treating HCT-116 cells with 6. […]
Apoptotic activity of compound 6 was evaluated using Annexin V-FITC/PI apoptosis detection kit.
HCT-116 cells ([…]) were seeded and incubated with compound 6 for 48 h, trypsinized, collected and washed with phosphate-buffered saline (PBS) several times; […] cells were stained with […]
Annexin V fluorescein isothiocyanate (FITC) and counterstained with propidium iodide (PI) for 15 min at 37 °C in the dark using the apoptosis detection kit (BD Biosciences, San Jose, CA) according to the manufacturer's protocol. Then, Annexin V-FITC and PI binding were analyzed by a FACS […]
Crystal structure of VEGFR-2 [PDB ID: 2OH4, resolution: 2.07 Å] was obtained from Protein Data Bank. The docking investigation was accomplished using MOE 2014 software. At first, the crystal structure of VEGFR-2 was prepared by removing water molecules. Only one chain was retained beside the co-crystallized ligand. Then, the selected chain was protonated and subjected to minimization of energy process. Next, the active site of the target protein was defined.
Structures of the synthesized compounds and sorafenib (as reference standard) were drawn using ChemBioDraw Ultra 14.0 and saved as MDL-SD format. Such file was opened using MOE to display the 3D structures which were protonated and subjected to energy minimization. Formerly, validation of the docking process was performed by docking the co-crystallized ligand against the isolated pocket of active site. The produced RMSD value indicated the validity of process. Finally, docking of the tested compounds was done through the dock option inserted in compute window.
For each docked molecule, 30 docked poses were produced using ASE for scoring function and force field for refinement. The results of the docking process were then visualized using Discovery […]
ADMET descriptors (absorption, distribution, metabolism, excretion and toxicity) of the compounds were determined using Discovery studio 4.0. At first, the CHARMM force field was applied then the tested compounds were prepared and minimized according to the preparation of small molecule protocol. Then ADMET descriptors protocol was applied to carry out these studies.
The toxicity parameters of the synthesized compounds were calculated using Discovery studio 4.0.
Sorafenib was used as a reference drug. At first, the CHARMM force field was applied then the […]

[2] = tested on: HCT-116 cells; assay: Flow cytometry cell cycle analysis (PI staining); format: cell-based; settings: HCT-116, 9.3 µM of compound 6, 48 h
Procedure: It was clear from the obtained results that member 6 arrested cell cycle progression at the phase G2-M, as it caused a significant elevation of the cell levels by 35.84% versus 12.91% accumulation of the control cells.
Were conducted propidium iodide (PI) staining and flow cytometry analysis.. In-depth discussions have been held in the Supplementary Data. […]
and were expressed as means ± SD. […]
HCT-116 cells were grown in six-well plates (each one contains 2 x 10^5 cells per well) containing 10% foetal bovine serum and incubated for 24 h at 37 °C and 5% CO2. The medium was replaced with (DMSO 1% v/v) containing the 9.3 µM of compound 6, then incubated for 48 h, collected and washed with cold phosphate buffered saline (PBS). After fixation of the collected cells with ice-cold […] ethanol (70%), the cells were rinsed with PBS then stained with the DNA fluorochrome PI, kept for 15 min at 37 °C. Then samples were analyzed with a FACS Caliber flow cytometer. […]

[3] = target: Human VEGFR-2 (Homo sapiens, UniProt P35968); assay: In vitro VEGFR-2 enzyme inhibition assay (ELISA kit)
Procedure: The ability of the four synthesized congeners to inhibit the VEGFR-2 enzyme in HCT-116 cells was also evaluated.
✓ Assessment of VEGFR-2 inhibition

[4] = tested on: interleukin 6 (IL6); assay: In vitro immunomodulatory assay, IL6; format: cell-based; settings: HCT-116 cells
Procedure: (§1) The immunomodulatory potentialities of congeners 6 and 7 on HCT-116 cells was also assayed. Two well-defined immunity markers, human tumor necrosis factor alpha (TNF-α), and interleukin 6 (IL6), were measured following the treatment with each compound. In addition, dexamethasone was co-assayed as a reference drug. A considerable reduction in both markers was noticed regarding the two compounds (Table 4).

[5] = tested on: human tumor necrosis factor alpha (TNF-α); assay: In vitro immunomodulatory assay, TNF-α; format: cell-based; settings: HCT-116 cells
Procedure: as §1

[6] = tested on: HepG-2; assay: In vitro anti-proliferative activity (MTT); format: cell-based; settings: Homo sapiens, HepG2, mean ± S.D. of three experiments, read-out: In Vitro Cytotoxicity IC50 HepG-2
Procedure: (§2) The latter cells were selected owing to their VEGFR-2 overabundance.
(§3) Was conducted the experiment by the MTT procedure. In-depth discussions have been held in the Supplementary Data. […]
(§4) ✓ In vitro anti-proliferative activity against HepG-2 and HCT-116
(§5) The cells were cultured in RPMI-1640 medium supplemented with 10% fetal bovine serum (FBS), penicillin (100 unit /mL) and streptomycin sulphate (100µg/mL) at 37 °C in a 5% CO2 incubator.
(§6) Then, cells were dropped in 96-well plates at a density of 3-8 × 10^3 cells/well and incubated for two days in a 5% CO2 incubator at 37 °C. Then, the cells were treated with the synthesized compounds and the cell cultures were continued incubated for 24 h. However, Different concentrations of the compound under test (0.0, 5.0, 12.5, 25.0 and 50 mg/ml) were added to the cell monolayer. Then, (3-[4,5-dimethylthiazol-2-yl]- 2,5-diphenyltetrazolium bromide) MTT solution (20 µl, 5mg/mL) was added to each well and incubated for additional 4 h. The formed purple crystals of MTT-formazan were dissolved in 100 µl DMSO each well; the absorbance of each well was measured at 570 nm using a plate reader (EXL 800, USA). All compounds were tested three times. The relative cell viability in percentage was calculated. The results for IC50 values of the active compounds are […]
(§7) The data represented the mean of three independent experiments in triplicate and were expressed as means ± SD. […]

[7] = tested on: HCT-116; assay: In vitro anti-proliferative activity (MTT); format: cell-based; settings: Homo sapiens, mean ± S.D. of three experiments, read-out: In Vitro Cytotoxicity IC50 HCT-116
Procedure: as §2, §3, §4, §5, §6, §7

[8] = tested on: VEGFR-2; settings: Reported nicotinamide VEGFR-2 inhibitor, Figure 2; no reference given; cited from earlier work

Chain of Human VEGFR-2 (P35968 20-1356): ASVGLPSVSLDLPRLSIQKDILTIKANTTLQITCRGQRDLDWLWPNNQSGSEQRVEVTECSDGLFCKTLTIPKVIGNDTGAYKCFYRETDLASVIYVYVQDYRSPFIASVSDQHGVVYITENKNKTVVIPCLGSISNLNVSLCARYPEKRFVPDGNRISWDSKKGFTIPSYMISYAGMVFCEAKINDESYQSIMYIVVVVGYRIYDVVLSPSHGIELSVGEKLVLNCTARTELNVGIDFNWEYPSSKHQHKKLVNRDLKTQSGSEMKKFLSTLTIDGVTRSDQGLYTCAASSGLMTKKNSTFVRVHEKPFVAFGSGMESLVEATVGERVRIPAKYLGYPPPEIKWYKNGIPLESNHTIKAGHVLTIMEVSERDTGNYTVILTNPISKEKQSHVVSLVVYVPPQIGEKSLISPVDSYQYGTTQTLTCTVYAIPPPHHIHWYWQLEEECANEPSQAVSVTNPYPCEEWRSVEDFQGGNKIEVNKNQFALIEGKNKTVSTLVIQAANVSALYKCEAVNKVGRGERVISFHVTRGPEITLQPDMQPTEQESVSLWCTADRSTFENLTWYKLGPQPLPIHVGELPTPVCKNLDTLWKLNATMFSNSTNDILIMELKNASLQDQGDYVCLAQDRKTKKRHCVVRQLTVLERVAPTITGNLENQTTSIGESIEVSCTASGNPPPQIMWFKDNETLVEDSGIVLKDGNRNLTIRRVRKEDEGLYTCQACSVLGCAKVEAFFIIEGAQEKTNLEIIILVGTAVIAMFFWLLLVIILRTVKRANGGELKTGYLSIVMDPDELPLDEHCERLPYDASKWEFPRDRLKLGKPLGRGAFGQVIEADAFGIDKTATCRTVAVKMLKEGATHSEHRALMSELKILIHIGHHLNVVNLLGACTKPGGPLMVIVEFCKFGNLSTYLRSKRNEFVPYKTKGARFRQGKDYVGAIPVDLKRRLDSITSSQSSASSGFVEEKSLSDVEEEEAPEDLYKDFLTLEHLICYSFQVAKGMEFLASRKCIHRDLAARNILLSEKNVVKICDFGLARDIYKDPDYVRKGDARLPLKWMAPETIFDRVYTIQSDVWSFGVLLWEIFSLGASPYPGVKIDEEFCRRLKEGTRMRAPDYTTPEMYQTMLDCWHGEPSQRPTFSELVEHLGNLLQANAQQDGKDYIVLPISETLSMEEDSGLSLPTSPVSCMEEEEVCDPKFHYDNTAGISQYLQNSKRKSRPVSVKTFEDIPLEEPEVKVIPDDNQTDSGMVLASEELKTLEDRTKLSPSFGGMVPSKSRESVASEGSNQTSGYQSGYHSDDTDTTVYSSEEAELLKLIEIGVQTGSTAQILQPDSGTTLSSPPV

SMILES: CC(=NNC(N)=O)c1ccc(NC(=O)c2cccnc2)cc1 [Compound 10, N-{4-[1-(2-Carbamoylhydrazineylidene)ethyl]phenyl}nicotinamide]
IC50 [3]: 0.0636 ± 0.00331 µM
IC50 [6]: 17.6 ± 0.048 µM
IC50 [7]: 24.2 ± 0.06 µM

SMILES: C[C@@H]1C[C@H]2[C@@H]3CCC4=CC(=O)C=C[C@]4(C)[C@@]3(F)[C@@H](O)C[C@]2(C)[C@@]1(O)C(=O)CO [Dexamethasone, reference compound]
% Inhibition of IL6 pg/mL [4]: 93.15%
% Inhibition of TNF-α pg/mL [5]: 82.47%

SMILES: C/C(=N\Nc1ccccc1)c1ccc(NC(=O)c2cccnc2)cc1 [II]
IC50 [8]: 0.0231 µM

Further lines, with some results ahead:

IC50 [3]: 0.0608 ± 0.00381 µM
SMILES: O=C(NN=Cc1ccc(Cl)cc1)c1ccc(NC(=O)c2cccnc2)cc1 [Compound 6, N-{4-[2-(4-Chlorobenzylidene)hydrazine-1-carbonyl]phenyl}nicotinamide]
Apoptosis Early [1]: 5.78%
Apoptosis Late [1]: 9.75%
Apoptosis Total [1]: 16.93
Necrosis [1]: 1.40%
% G0-G1 [2]: 36.71%
% G2-M [2]: 35.84%
% Pre-G1 [2]: 16.93%
% S [2]: 27.45%
% Inhibition of IL6 pg/mL [4]: 57.34%
% Inhibition of TNF-α pg/mL [5]: 66.42%
IC50 [6]: 7.8 ± 0.025 µM
IC50 [7]: 9.3 ± 0.02 µM

IC50 [3]: 0.129 ± 0.00832 µM
SMILES: O=C(NN=Cc1ccccc1O)c1ccc(NC(=O)c2cccnc2)cc1 [Compound 7, N-{4-[2-(2-Hydroxybenzylidene)hydrazine-1-carbonyl]phenyl}nicotinamide]
% Inhibition of IL6 pg/mL [4]: 52.75%
% Inhibition of TNF-α pg/mL [5]: 60.54%
IC50 [6]: 10.2 ± 0.035 µM
IC50 [7]: 15.9 ± 0.041 µM

IC50 [3]: 0.23 ± 0.0102 µM
SMILES: O=C(NN=Cc1c[nH]c2ccccc12)c1ccc(NC(=O)c2cccnc2)cc1 [Compound 8, N-{4-[2-((1H-Indol-3-yl)methylene)hydrazine-1-carbonyl]phenyl}nicotinamide]
IC50 [6]: 16.03 ± 0.051 µM
IC50 [7]: 20.5 ± 0.052 µM
